From patent publication EP3260120B1, “PHARMACOLOGICAL ADJUVANTS FOR THERMAL ABLATION OF CANCER” (Blasi, Paolo, priority 2016, dated 2017)

System: human colon adenocarcinoma HT-29 cell line
Experiment: thermosensitizing or killing effect on HT-29 cells (cell count, ethidium bromide / fluorescein diacetate viability)
Format: cell-based
Settings: for Viability (%) / Total cells (x10^6) / Living cells (x10^6): mean ± S.D.; for Living cells (x10^6): viability % applied to total cells
Method: The thermosensitizing or killing effect of omeprazole in acidic solution and that of liposome formulations was tested on human colon adenocarcinoma HT-29 cell line (Istituto Zooprofilattico Ubertini, Brescia, Italy). The cells were incubated under standard conditions: 5% CO2, 37°C, in McCOY'S 5A medium (Sigma-Aldrich, Milan, Italy) at pH 7.4 with sodium bicarbonate, antibiotics and antifungals (penicillin 100 U/mL, streptomycin 100 U/mL, amphotericin B 0.25 µg/mL) and 10% foetal bovine serum. A trypsin solution with EDTA was employed to detach the cells from the culture plates. The experimental protocol is reported in the following scheme: [formula] In detail: • 1)-HT-29 cells were seeded in 6-well culture plates (Falcon) with a 10 cm^2 area at a 250,000 cell/well concentration and 5 mL medium as indicated above. • 2)-After 72 h plating, the culture medium, with initial buffered pH=7.4, was replaced with unbuffered medium (without sodium bicarbonate), and 12 wells were maintained at 37°C, while 12 wells were destined for thermal treatment. In each group, three wells were treated with omeprazole in acidic solution, three with LUVs with acidic core and three with LUVs loaded with omeprazole in acidic solution, according to the concentrations reported in the previous scheme. […] At the end of the thermal treatment the cells were brought back into the incubator at 37°C. • 4)-After 24 h, the following parameters were evaluated for all the wells: Total number of cells (living and dead). After detachment of the cell monolayer with trypsin and EDTA, the total number of cells (living + dead) in each well was determined using a Countess cell counting machine (Invitrogen, Milan, Italy). Cell viability (%). Cell viability was evaluated by incubation of a detached cell suspension with ethidium bromide and fluorescein diacetate (Sigma-Aldrich, Milan, Italy). The cells were analysed with a fluorescent optical microscope (Olympus BX-41, Tokyo, Japan) using the filter for fluorescein. The images were recorded with an F-view digital camera (Olympus) and processed with F-view software (Olympus). With this method, the living cells are stained green and the dead cells red, as fluorescein diacetate is internalized by living cells and hydrolysed by cytoplasm esterases into the corresponding fluorochrome, fluorescein, which emits an intense green fluorescence, whereas ethidium bromide only penetrates cells with altered membranes, binding to nucleic acids and producing a red fluorescence. The living and dead cells were counted by a semi-manual method. A minimum of three images per well were acquired in distinct areas, representative of the corresponding cell suspension. For the group maintained at 37°C, an average of 2,500 cells was counted for each treatment type (constituted by three wells representing the single treatment performed in triplicate). Since the number of cells decreases noticeably for the wells treated at 45°C for 2 h, the number of recorded images was increased (from 9 to 16), and 2,700 to 3,500 cells were counted for each treatment type (constituted by three wells representing the single treatment performed in triplicate). Living cell (green) and dead cell (red) counts were acquired by marking each cell and recording the resulting cell number with Image J software. The percentage viability of the cells counted for each sample was calculated as follows: Viability(%) = (No. of living cells)/(No. of living cells + No. of dead cells)⋅100 [formula] Total number of living cells. The endpoint of the study was the total number of tumour cells surviving the different treatments. This value was calculated for each well by applying the viability percentage obtained by semi-manual counting to the total number of cells measured by the cell-counting machine. Statistical analysis. The data were subjected to statistical analysis with the paired Student's t-test and one-way ANOVA (SigmaPlot 12.0, Systat Software Inc.) with a 95% significance level. […]

[1] = 37°C, 48 h incubation with treatment
[2] = 45°C for 2h after 24 h pre-incubation, evaluated 24 h after thermal treatment

COc1ccc2[nH]c([S+]([O-])Cc3ncc(C)c(OC)c3C)nc2c1 (centres unmarked) [B, omeprazole]
Viability (%) [1]: 83.3 ± 2.4%
decrease in number of surviving tumour cells versus untreated control (37°C, 48 h of incubation): 25%
Total cells (x10^6) (37°C, living and dead cells per well, 48 h incubation with treatment): 1.83 ± 0.25 x10^6
Living cells (x10^6) [1]: 1.53 ± 0.22 x10^6
reduction in number of living cells compared to heating only (45°C for 2 h, 24 h after heat shock): 41%
Total cells (x10^6) [2]: 0.66 ± 0.27 x10^6
Viability (%) [2]: 61.5 ± 4.4%
Living cells (x10^6) [2]: 0.40 ± 0.10 x10^6
